{"source": "paper PMC4334441", "about": "(Analytical biochemistry, 2013)", "assay_type_in_all_cases": "biochemical", "key": {"[1]": {"target": "mammalian-expressed ADAM17_ECD (Homo sapiens, UniProt P78536)", "sequence (P78536 215-651 limits assumed)": "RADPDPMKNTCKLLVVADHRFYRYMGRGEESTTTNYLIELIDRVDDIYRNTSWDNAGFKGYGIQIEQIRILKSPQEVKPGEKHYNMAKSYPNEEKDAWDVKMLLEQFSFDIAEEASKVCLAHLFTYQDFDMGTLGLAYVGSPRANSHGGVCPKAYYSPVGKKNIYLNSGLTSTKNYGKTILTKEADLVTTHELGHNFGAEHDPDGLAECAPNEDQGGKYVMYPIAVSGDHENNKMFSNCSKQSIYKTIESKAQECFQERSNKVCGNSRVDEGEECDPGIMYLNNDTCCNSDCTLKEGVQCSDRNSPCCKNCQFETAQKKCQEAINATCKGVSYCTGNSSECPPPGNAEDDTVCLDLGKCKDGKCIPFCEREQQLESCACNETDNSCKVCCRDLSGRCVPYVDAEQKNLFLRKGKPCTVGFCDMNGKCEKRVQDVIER", "assay": "Inhibition studies", "conditions": "comparison of insect- and mammalian-produced ADAM17_ECD"}, "[2]": {"target": "insect-produced ADAM17 ECD (Homo sapiens, UniProt P78536)", "sequence (P78536 215-671 limits assumed)": "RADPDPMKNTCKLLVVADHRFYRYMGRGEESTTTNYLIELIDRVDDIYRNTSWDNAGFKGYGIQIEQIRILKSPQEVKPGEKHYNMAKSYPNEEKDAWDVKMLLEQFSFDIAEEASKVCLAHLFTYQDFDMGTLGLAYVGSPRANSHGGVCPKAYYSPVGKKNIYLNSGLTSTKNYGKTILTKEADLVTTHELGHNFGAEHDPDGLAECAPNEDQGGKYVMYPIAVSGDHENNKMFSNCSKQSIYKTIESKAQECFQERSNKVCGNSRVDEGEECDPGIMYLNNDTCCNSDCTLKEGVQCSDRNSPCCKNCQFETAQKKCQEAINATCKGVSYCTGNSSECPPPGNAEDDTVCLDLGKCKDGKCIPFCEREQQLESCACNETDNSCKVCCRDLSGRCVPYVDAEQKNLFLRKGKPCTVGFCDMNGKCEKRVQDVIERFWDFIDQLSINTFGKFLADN", "assay": "Inhibition kinetics", "conditions": "for Ki/Ki′ (alpha) / inhibition mechanism: insect-produced ADAM17 ECD; for Ki/Ki′ (alpha): mixed-model inhibition; for inhibition mechanism: confirmed by Lineweaver-Burke plots"}, "[3]": {"target": "mammalian-produced ADAM17 ECD (Homo sapiens, UniProt P78536)", "sequence (P78536 215-651 limits assumed)": "as the sequence (P78536 215-651 limits assumed) above", "assay": "Inhibition kinetics", "conditions": "for Ki/Ki′ (alpha) / inhibition mechanism: mammalian-produced ADAM17 ECD; for Ki/Ki′ (alpha): mixed-model inhibition; for inhibition mechanism: confirmed by Lineweaver-Burke plots"}, "[4]": {"target": "insect-produced ADAM17_ECD (R&D Systems) (Homo sapiens, UniProt P78536)", "sequence (P78536 215-671 limits assumed)": "as the sequence (P78536 215-671 limits assumed) above", "assay": "ADAM17 active site titration with MMP-9/-13 inhibitor, insect-produced ADAM17"}}, "note": "Read-outs that look alike come from different tables or passages of the source."}
{"smiles": "CC(=O)NO", "note": "[AHA, N-acetohydroxamic acid]", "values": [{"measurement": "dose response curves for inhibition of insect- versus mammalian-expressed ADAM17", "setting": "[1]", "value": "superimposable"}]}
{"smiles": "COc1ccc(S(=O)(=O)N2CCN(C(=O)c3ccc(-c4ccccc4)cc3)CC2C(=O)NO)cc1", "note": "(centres unmarked) [MMP-9/-13 inhibitor, N-hydroxy-1-(4-methoxyphenyl)sulfonyl-4-(4-biphenylcarbonyl)piperazine-2-carboxamide]", "values": [{"measurement": "Ki", "setting": "[2]", "value": "3.1 ± 0.2", "unit": "nM"}, {"measurement": "Ki/Ki′ (alpha)", "setting": "[2]", "value": "0.91 ± 0.26"}, {"measurement": "inhibition mechanism", "setting": "[2]; non-linear regression", "value": "pure non-competitive inhibition"}, {"measurement": "Ki", "setting": "[3]", "value": "1.8 ± 0.1", "unit": "nM"}, {"measurement": "Ki/Ki′ (alpha)", "setting": "[3]", "value": "0.99 ± 0.34"}, {"measurement": "inhibition mechanism", "setting": "[3]; non-linear regression", "value": "pure non-competitive inhibition"}, {"measurement": "stoichiometry of ADAM17_ECD and MMP-9/-13 inhibitor (factor)", "setting": "[4]; 10.5 nM divided by enzyme concentration 0.4 nM, Fig. 5B", "value": 26.3}, {"measurement": "concentration of inhibitor necessary to produce 100% inhibition of ADAM17", "setting": "[4]; titration, enzyme concentration 0.4 nM, Fig. 5A", "value": 10.5, "unit": "nM"}, {"measurement": "dose response curves for inhibition of insect- versus mammalian-expressed ADAM17", "setting": "[1]", "value": "superimposable"}]}
{"smiles": "CC(C)C[C@H](CC(=O)NO)C(=O)N[C@H](C(=O)N[C@@H](C)C(=O)NCCN)C(C)(C)C", "note": "[TAPI-2]", "values": [{"measurement": "Ki", "setting": "[2]; insect-produced ADAM17, mixed inhibition model, non-linear regression", "value": "31 ± 1.4", "unit": "nM"}, {"measurement": "Ki/Ki′ (alpha)", "setting": "[2]", "value": "1.76 ± 0.42"}, {"measurement": "inhibition mechanism", "setting": "[2]; non-linear regression", "value": "mixed inhibition"}, {"measurement": "Ki", "setting": "[3]; mammalian-produced ADAM17, mixed inhibition model, non-linear regression", "value": "32 ± 5", "unit": "nM"}, {"measurement": "Ki/Ki′ (alpha)", "setting": "[3]", "value": "2.27 ± 0.55"}, {"measurement": "inhibition mechanism", "setting": "[3]; non-linear regression", "value": "mixed inhibition"}, {"measurement": "dose response curves for inhibition of insect- versus mammalian-expressed ADAM17", "setting": "[1]", "value": "superimposable"}]}
